Test results: patent publication US20260207602A1, “EGFR INHIBITORS” (Blueprint Medicines Corporation, priority 2022, published 2026)

What was measured:
[1] = target: intracellular phosphorylation of EGFR (Tyr1068) in PC-9 cells (Homo sapiens, UniProt P00533, DEL746-750); assay: PC-9 pEGFR AlphaLISA assay; type: cell-based; settings: 4 hours incubation, read-out: Phos EGFR PC9 IC50
Summary of the method: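 PC-9 cells (EGFR del746-750) in phenol-free DMEM/10% FBS, adhered overnight, then exposed to 10-point 4-fold compound dilutions for 4 h at 37 °C. Lysates assayed for pEGFR Tyr1068 by AlphaLISA SureFire Ultra; IC50 from percent pEGFR inhibition vs log concentration.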

EGFR (d746-750) = target: T1, EGFR (d746-750) (Homo sapiens, UniProt P00533, DEL746-750); assay: Biochemical EGFR inhibition assay (Caliper mobility shift), EGFR (d746-750); settings: biochemical Caliper mobility shift assay, EGFR Exon 19-del enzyme; read-out: Enz EGFR Exon 19-del IC50
T1 construct: purchased SignalChem E10-122JG
Procedure: Inhibitory effects of the compounds of the disclosure were measured in biochemical assays that measure the phosphorylation activity of EGFR enzyme phosphorylates 2.5 micromolar 5-FAM-[…]-CONH2 peptide substrate (ProfilerPro Kinase Peptide Substrate 22, PerkinElmer, Part #760366) in the presence of adenosine-5′-triphosphate (ATP) and varying concentrations of the test compound in 100 mM 2-[4-(2-hydroxyethyl)piperazin-1-yl]ethanesulfonic acid (HEPES), pH 7.5, 10 mM MgCl2, 0.015% Brij-35, 1 mM dithiothreitol (DTT), 1.0% dimehylsulfoxide (DMSO). Assays were performed at 1.0 mM ATP or at ATP Km of the EGFR enzymes. Reactions proceeded until between 10% to 20% total peptides were phosphorylated at room temperature (25° C.) and were terminated with 35 mM 2,2′,2″,2′″-(ethane-1,2-diyldinitrilo)tetraacetic acid (EDTA). Product was detected using the Caliper mobility shift detection method where the phosphorylated peptide (product) and substrate were electrophoretically separated and measured. Percent activity was plotted against log concentration of compound and points to generate an apparent IC50. The following enzyme forms of • EGFR were examples that were used in these assays: • EGFR WT (SignalChem, E10-112G) • EGFR L858R (SignalChem, E10-122BG) • EGFR (d746-750) (SignalChem, E10-122JG) • EGFR L858R C797S (SignalChem, E10-122ZG) • EGFR (d746-750) C797S (SignalChem, E10-122TG)

EGFR L858R = target: T2, EGFR L858R (Homo sapiens, UniProt P00533, L858R); assay: Biochemical EGFR inhibition assay (Caliper mobility shift), EGFR L858R; settings: biochemical Caliper mobility shift assay, EGFR L858R enzyme; read-out: Enz EGFR L858R IC50
T2 construct: purchased SignalChem E10-122BG
Summary of the method: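 Recombinant mutant enzyme, 2.5 µM fluorescent peptide, ATP at 1.0 mM or Km, 1.0% DMSO, 25 °C. Stopped with EDTA once 10–20% of peptide was phosphorylated; apparent IC50 derived from electrophoretic product/substrate separation.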

intracellular phosphorylation of EGFR (Tyr1068) in PC-9 cells, sequence (P00533 with tags, fused parts or gaps DEL746-750): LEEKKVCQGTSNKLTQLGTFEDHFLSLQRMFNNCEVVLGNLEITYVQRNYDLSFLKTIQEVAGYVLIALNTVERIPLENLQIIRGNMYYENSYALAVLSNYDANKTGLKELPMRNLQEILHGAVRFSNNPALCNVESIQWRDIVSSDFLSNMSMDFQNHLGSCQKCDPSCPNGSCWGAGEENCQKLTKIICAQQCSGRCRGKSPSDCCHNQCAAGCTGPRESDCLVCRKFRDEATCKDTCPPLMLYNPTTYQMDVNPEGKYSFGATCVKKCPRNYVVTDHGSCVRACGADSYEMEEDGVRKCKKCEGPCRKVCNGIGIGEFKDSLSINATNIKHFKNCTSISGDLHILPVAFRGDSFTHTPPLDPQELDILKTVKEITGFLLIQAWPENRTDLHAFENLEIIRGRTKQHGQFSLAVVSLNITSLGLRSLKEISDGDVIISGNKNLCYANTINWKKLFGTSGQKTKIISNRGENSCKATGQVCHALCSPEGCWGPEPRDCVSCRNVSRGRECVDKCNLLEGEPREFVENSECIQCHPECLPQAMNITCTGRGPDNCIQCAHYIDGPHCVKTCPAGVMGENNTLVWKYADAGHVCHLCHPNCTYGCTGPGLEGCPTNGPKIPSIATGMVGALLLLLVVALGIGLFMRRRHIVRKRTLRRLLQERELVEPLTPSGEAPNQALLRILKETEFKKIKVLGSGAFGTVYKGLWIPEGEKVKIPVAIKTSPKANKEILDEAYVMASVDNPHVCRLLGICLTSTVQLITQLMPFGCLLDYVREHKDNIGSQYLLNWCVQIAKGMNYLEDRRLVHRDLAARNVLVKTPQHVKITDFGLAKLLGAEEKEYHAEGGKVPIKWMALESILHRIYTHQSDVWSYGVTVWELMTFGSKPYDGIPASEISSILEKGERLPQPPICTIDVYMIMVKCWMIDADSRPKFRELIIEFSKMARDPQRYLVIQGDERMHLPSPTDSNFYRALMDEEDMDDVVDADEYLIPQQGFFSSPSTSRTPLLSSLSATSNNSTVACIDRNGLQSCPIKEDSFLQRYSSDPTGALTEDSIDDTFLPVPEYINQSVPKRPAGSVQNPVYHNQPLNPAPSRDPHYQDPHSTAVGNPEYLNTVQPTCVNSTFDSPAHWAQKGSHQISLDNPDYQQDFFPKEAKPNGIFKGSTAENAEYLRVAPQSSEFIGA
T1 sequence (P00533 with tags, fused parts or gaps DEL746-750 limits assumed): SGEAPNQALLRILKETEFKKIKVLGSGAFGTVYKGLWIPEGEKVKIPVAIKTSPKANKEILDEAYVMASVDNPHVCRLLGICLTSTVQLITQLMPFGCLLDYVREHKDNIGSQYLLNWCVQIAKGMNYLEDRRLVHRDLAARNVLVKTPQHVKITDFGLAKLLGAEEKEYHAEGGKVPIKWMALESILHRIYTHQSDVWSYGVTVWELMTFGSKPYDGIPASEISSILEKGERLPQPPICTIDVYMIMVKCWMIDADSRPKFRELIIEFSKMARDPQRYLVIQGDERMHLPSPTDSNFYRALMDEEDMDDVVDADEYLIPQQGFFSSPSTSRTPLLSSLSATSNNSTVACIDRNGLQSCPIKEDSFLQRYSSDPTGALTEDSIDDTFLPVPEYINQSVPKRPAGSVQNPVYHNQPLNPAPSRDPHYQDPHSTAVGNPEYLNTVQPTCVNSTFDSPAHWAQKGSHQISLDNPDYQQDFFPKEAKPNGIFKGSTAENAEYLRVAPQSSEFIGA
T2 sequence (P00533 25-1210 L858R): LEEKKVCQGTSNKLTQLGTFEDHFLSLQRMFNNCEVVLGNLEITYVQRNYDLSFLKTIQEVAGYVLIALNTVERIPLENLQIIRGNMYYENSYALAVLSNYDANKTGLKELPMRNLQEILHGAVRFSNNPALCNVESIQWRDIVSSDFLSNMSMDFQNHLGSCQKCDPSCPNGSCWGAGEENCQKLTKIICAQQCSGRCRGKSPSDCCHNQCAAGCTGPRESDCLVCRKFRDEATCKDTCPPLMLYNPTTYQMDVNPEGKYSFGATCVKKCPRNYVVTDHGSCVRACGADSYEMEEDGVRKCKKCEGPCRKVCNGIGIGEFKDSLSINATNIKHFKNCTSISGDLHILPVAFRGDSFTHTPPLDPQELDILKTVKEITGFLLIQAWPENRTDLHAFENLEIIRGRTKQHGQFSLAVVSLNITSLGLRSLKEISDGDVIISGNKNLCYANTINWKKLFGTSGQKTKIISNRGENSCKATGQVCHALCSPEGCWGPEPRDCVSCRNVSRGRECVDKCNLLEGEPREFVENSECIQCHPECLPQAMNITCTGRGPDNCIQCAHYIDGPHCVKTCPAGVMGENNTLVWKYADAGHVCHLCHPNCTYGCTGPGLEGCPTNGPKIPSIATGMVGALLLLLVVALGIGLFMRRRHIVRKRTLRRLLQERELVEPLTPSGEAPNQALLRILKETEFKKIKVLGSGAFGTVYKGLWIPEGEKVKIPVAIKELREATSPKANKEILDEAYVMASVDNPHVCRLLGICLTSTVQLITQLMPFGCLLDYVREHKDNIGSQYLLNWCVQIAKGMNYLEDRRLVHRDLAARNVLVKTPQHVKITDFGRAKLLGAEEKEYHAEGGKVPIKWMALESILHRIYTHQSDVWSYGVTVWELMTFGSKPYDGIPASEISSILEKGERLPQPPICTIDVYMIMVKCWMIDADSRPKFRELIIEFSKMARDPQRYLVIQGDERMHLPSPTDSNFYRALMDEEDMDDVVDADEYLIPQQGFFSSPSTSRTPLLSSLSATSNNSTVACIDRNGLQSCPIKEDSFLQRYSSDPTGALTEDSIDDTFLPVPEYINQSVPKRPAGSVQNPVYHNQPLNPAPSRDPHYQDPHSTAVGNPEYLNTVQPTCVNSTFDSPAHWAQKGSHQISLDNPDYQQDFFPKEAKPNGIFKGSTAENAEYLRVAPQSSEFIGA

Row | IC50 [1] [nM] | IC50 (EGFR (d746-750)) [nM] | IC50 (EGFR L858R) [nM] | Structure (SMILES)
1 | ≤ 10 | ≤ 10 | ≤ 10 | CCN1CC[C@H](Oc2cc(-c3cnn(C)c3)cc3ncnc(Nc4ccc5ncsc5c4)c23)C1=O (single isomer, unassigned) [Example 59, (S)-3-((4-(benzo[d]thiazol-6-ylamino)-7-(1-methyl-1H-pyrazol-4-yl)quinazolin-5-yl)oxy)-1-ethylpyrrolidin-2-one or (R)-3-((4-(benzo[d]thiazol-6-ylamino)-7-(1-methyl-1H-pyrazol-4-yl)quinazolin-5-yl)oxy)-1-ethylpyrrolidin-2-one]
2 | 10.1 to 50 | ≤ 10 | ≤ 10 | CCN1CC[C@H](Oc2cc(-c3cnn(C)c3)cc3ncnc(Nc4ccc5ncsc5c4)c23)C1=O (single isomer, unassigned) [Example 60, (S)-3-((4-(benzo[d]thiazol-6-ylamino)-7-(1-methyl-1H-pyrazol-4-yl)quinazolin-5-yl)oxy)-1-ethylpyrrolidin-2-one or (R)-3-((4-(benzo[d]thiazol-6-ylamino)-7-(1-methyl-1H-pyrazol-4-yl)quinazolin-5-yl)oxy)-1-ethylpyrrolidin-2-one]
3 | ≤ 10 | ≤ 10 | ≤ 10 | CC(C)N1CC[C@@H](Oc2cc(-c3cnn(C)c3)cc3ncnc(Nc4ccc5ncsc5c4)c23)C1=O (single isomer, unassigned) [Example 63]
4 | 10.1 to 50 | ≤ 10 | ≤ 10 | CC(C)N1CC[C@@H](Oc2cc(-c3cnn(C)c3)cc3ncnc(Nc4ccc5ncsc5c4)c23)C1=O (single isomer, unassigned) [Example 64]
5 | ≤ 10 | ≤ 10 | ≤ 10 | C[C@H](Oc1cc(-c2cnn(C)c2)cc2ncnc(Nc3ccc4ncsc4c3F)c12)C1COC1 (single isomer, unassigned) [Example 71, (S)-7-fluoro-N-(7-(1-methyl-1H-pyrazol-4-yl)-5-(1-(oxetan-3-yl)ethoxy)quinazolin-4-yl)benzo[d]thiazol-6-amine or (R)-7-fluoro-N-(7-(1-methyl-1H-pyrazol-4-yl)-5-(1-(oxetan-3-yl)ethoxy)quinazolin-4-yl)benzo[d]thiazol-6-amine]
6 | ≤ 10 | ≤ 10 | ≤ 10 | CN1CC[C@H](Oc2cc(-c3cnn(C)c3)cc3ncnc(Nc4ccc5ncsc5c4F)c23)C1=O (single isomer, unassigned) [Example 72]
7 | 10.1 to 50 | ≤ 10 | ≤ 10 | CN1CC[C@H](Oc2cc(-c3cnn(C)c3)cc3ncnc(Nc4ccc5ncsc5c4F)c23)C1=O (single isomer, unassigned) [Example 73]
8 | 10.1 to 50 | ≤ 10 | ≤ 10 | COc1nn(C)cc1-c1cc(O[C@H]2CCN(C)C2=O)c2c(Nc3ccc4ncsc4c3)ncnc2c1 (single isomer, unassigned) [Example 74]
9 | ≤ 10 | ≤ 10 | ≤ 10 | COc1nn(C)cc1-c1cc(O[C@H]2CCN(C)C2=O)c2c(Nc3ccc4ncsc4c3)ncnc2c1 (single isomer, unassigned) [Example 75]
10 | ≤ 10 | ≤ 10 | ≤ 10 | COc1nn(C)cc1-c1cc(O[C@H](C)C2COC2)c2c(Nc3ccc4ncsc4c3F)ncnc2c1 (single isomer, unassigned) [Example 78]
11 | ≤ 10 | ≤ 10 | ≤ 10 | COc1cn(C)nc1-c1cc(O[C@H](C)C2COC2)c2c(Nc3ccc4ncsc4c3F)ncnc2c1 (single isomer, unassigned) [Example 80]
12 | 10.1 to 50 | ≤ 10 | ≤ 10 | COc1cn(C)nc1-c1cc(O[C@H](C)C2COC2)c2c(Nc3ccc4ncsc4c3F)ncnc2c1 (single isomer, unassigned) [Example 81]
13 | 10.1 to 50 | ≤ 10 | ≤ 10 | COc1cc(O[C@H](C)C2COC2)c2c(Nc3ccc4ncsc4c3F)ncnc2c1 (single isomer, unassigned) [Example 82]
14 | ≤ 10 | ≤ 10 | ≤ 10 | COc1cc(O[C@H](C)C2COC2)c2c(Nc3ccc4ncsc4c3F)ncnc2c1 (single isomer, unassigned) [Example 83]
15 | ≤ 10 | ≤ 10 | ≤ 10 | COCCOc1cc(O[C@H](C)C2COC2)c2c(Nc3ccc4ncsc4c3F)ncnc2c1 (single isomer, unassigned) [Example 84]
16 | 10.1 to 50 | ≤ 10 | ≤ 10 | COCCOc1cc(O[C@H](C)C2COC2)c2c(Nc3ccc4ncsc4c3F)ncnc2c1 (single isomer, unassigned) [Example 85]
17 | ≤ 10 | ≤ 10 | ≤ 10 | C[C@@H](Oc1cc(-c2cnn(C)c2)cc2ncnc(Nc3ccc4ncsc4c3F)c12)C1(C)COC1 (single isomer, unassigned) [Example 86]
18 | ≤ 10 | ≤ 10 | ≤ 10 | C[C@@H](Oc1cc(-c2cnn(C)c2)cc2ncnc(Nc3ccc4ncsc4c3F)c12)[C@H]1CCOC1 (single isomer, unassigned) [Example 88]
19 | ≤ 10 | ≤ 10 | ≤ 10 | CC[C@@H](Oc1cc(-c2cnn(C)c2)cc2ncnc(Nc3ccc4ncsc4c3F)c12)C1COC1 (single isomer, unassigned) [Example 92]
20 | 10.1 to 50 | ≤ 10 | ≤ 10 | C[C@@H](Oc1cc(N2CCN(C)CC2)cc2ncnc(Nc3ccc4ncsc4c3F)c12)C1COC1 (single isomer, unassigned) [Example 94]
21 | 10.1 to 50 | ≤ 10 | 10.1 to 50 | C[C@@H](Oc1cc(N2CCN(C)CC2)cc2ncnc(Nc3ccc4ncsc4c3F)c12)C1COC1 (single isomer, unassigned) [Example 95]
22 | 10.1 to 50 | ≤ 10 | ≤ 10 | C[C@@H](Oc1cc(N2CCN(C)CC2)cc2ncnc(Nc3ccc4ncsc4c3)c12)C1COC1 (single isomer, unassigned) [Example 96]
23 | 10.1 to 50 | ≤ 10 | 10.1 to 50 | C[C@@H](Oc1cc(N2CCN(C)CC2)cc2ncnc(Nc3ccc4ncsc4c3)c12)C1COC1 (single isomer, unassigned) [Example 97]
24 | 10.1 to 50 | ≤ 10 | ≤ 10 | C[C@@H](Oc1cc(N2CCN(C)[C@@H](C)C2)cc2ncnc(Nc3ccc4ncsc4c3F)c12)C1COC1 (single isomer, unassigned) [Example 98]
25 | 10.1 to 50 | ≤ 10 | 10.1 to 50 | C[C@@H](Oc1cc(N2CCN(C)[C@@H](C)C2)cc2ncnc(Nc3ccc4ncsc4c3F)c12)C1COC1 (single isomer, unassigned) [Example 99]
26 | 10.1 to 50 | ≤ 10 | 10.1 to 50 | C[C@@H]1CN(c2cc(O[C@H](C)C3COC3)c3c(Nc4ccc5ncsc5c4F)ncnc3c2)CCN1 (single isomer, unassigned) [Example 100]
27 | 10.1 to 50 | 10.1 to 50 | 10.1 to 50 | C[C@@H]1CN(c2cc(O[C@H](C)C3COC3)c3c(Nc4ccc5ncsc5c4F)ncnc3c2)CCN1 (single isomer, unassigned) [Example 101]
28 | ≤ 10 | ≤ 10 | ≤ 10 | C[C@@H]1CN(c2cc(O[C@H](C)C3COC3)c3c(Nc4ccc5ncsc5c4F)ncnc3c2)CCN1C (single isomer, unassigned) [Example 102]
